According to US8536140B2, “Methods for treating inflammatory bowel disease” (MTI Meta Tech Inc., priority 2004, dated 2013):

Key:
rat intestine = settings: dietary, rat intestine in vivo; cited from earlier work
CaCo-2 cells [1] = test: Lactate dehydrogenase (LDH) release cytotoxicity assay; type: cell-based, human
Protocol: The human colon cancer cell line, CaCo-2, was obtained from American Type Culture Collection (Manassas, Va.) and was grown (passage 50-65) under standard incubator conditions (humidified atmosphere, 5% CO2, 37° C.) as adherent monolayer cultures in T-flasks containing Earle's minimum essential medium (EMEM). The cell culture growth medium (pH 7.2) was supplemented with 10% (v/v) fetal bovine serum, 1% (v/v) antibiotic/antimycotic, 26 mM sodium bicarbonate, 10 mM HEPES and 1 mM pyruvic acid. Media was changed every 2-3 days and cell density and viability was assessed with a hemocytometer using the trypan blue dye exclusion method.
Human intestine CaCo-2 cells were seeded at a density of 400,000 cells/ml on a 24 well plate. At confluence, cells were switched into EMEM-4 (4% FBS) and treated with a range of GD3 concentrations (0-64 μg/ml) similar or higher than the amount in human milk on the apical side for 24 h under standard incubator conditions. […] In brief, cell lysates and supernatants were incubated with an enzyme/substrate solution for 30 min at room temperature and the absorbance of colored formazan product was measured at 490 nm with a microtiter plate reader (Molecular Devices, Sunnyvale, Calif.). Absorbance background reading under kit conditions was less than 0.075. Data were expressed as percentage LDH release from cells. […]

CaCo-2 cells [2] = test: Apical and basolateral GD3 uptake, retention, transfer and metabolism in CaCo-2 cell monolayers on trans-well plates; type: in vitro ADME, human
Protocol: Polarized, differentiated monolayers of CaCo-2 cells grown on trans-well plates were used as a model to study apical and basolateral GD3 uptake. CaCo-2 cells were seeded at a density of 2.5×10^7 cells/ml on 0.4 μm pore inserts in 24 well trans-well plates (Corning Inc., Acton, Mass.). The apical (upper) and basolateral (lower) compartments contained 100 μl and 600 μl of EMEM-10, respectively. CaCo-2 cells were grown to confluence and were differentiated twenty days prior to delivering gangliosides. After 20 days, CaCo-2 cells were differentiated and polarized with intact tight junctions, as confirmed by alkaline phosphatase activity and trans-epithelial resistance measurements (data not shown). On day 21, CaCo-2 cells were transferred into Hank's MEM-4, a low serum, low calcium medium containing no antibiotics to limit serum and calcium interference with ganglioside uptake and antibiotic effects on tight junction permeability. Serum present in the media aided in GD3 solubilization and micelle formation during sonication. CaCo-2 cells were incubated under standard conditions in the absence (control, MEM-4 alone) or presence of purified ganglioside GD3 in MEM-4 for 6, 24 and 48 h at a concentration of 5 or 10 μg/ml. The time frame for exposing human intestine CaCo-2 cells to ganglioside GD3 was chosen to be 6-48 h as previous work on ganglioside GM1 uptake by cultured cells predicts slow and incomplete ganglioside absorption from the apical side. […] The ganglioside treated cells received GD3 on either the BBM (apical) side or the BLM side of CaCo-2 cell monolayers. GD3 delivery on the apical and BLM side of CaCo-2 cells was used as an in vitro model for enteral and intravenous nutrient delivery, respectively. After GD3 incubation, apical and BLM supernatants were collected and cells were washed with PBS and Tris buffer containing EDTA. CaCo-2 cells from each trans-well insert were trypsinized, pooled together in Tris-mannitol buffer and sonicated to form cell lysates. Cell lysates were saved for protein and ganglioside analysis.
Total and individual gangliosides were measured with a colorimetric sialic acid assay as ganglioside bound N-acetyl neuraminic acid (GG-NANA). An aliquot of purified ganglioside sample was dried under N2 gas and dissolved with 0.5 ml of ddH20 and 0.5 ml of resorcinol-HCl in screw-capped Teflon-lined tubes. The purple-blue color developed by reacting resorcinol reagent with ganglioside sialic acid at 160° C. for 8 min was extracted into butylacetate/butanol (85:15, v/v) solvent. Optical density was read by a spectrophotometer at 580 nm. For quantitative analysis, N-acetyl neuraminic acid (also known as sialic acid) was used as a standard.
The following equations were used to calculate the percentage and amount of ganglioside GD3 taken up, retained, transferred and metabolized by human intestinal CaCo-2 cells following brush border membrane or basolateral membrane GD3 delivery. For all calculations the values obtained from the control were subtracted off the test groups to correct for small levels of ganglioside present in the serum and cells. In Equation 1, the % uptake=[(amount delivered-amount remaining)*100%] divided by the amount delivered. In Equation 2, the % retention=[amount cell*100%] divided by the amount uptake. In Equation 3, the % transfer=[amount receiving compartment*100%] is divided by the amount uptake. In Equation 4, the % metabolism=[amount uptake−amount retained−amount transferred*100%] divided by the amount uptake.
Sample size determination for a one tailed comparison at 80% power to detect a 4-5 fold increase in GM1 levels in skin fibroblasts (0.2 nmol/mg protein to 0.9 nmol/mg protein, P<0.05) requires a sample size of 3. All data are expressed as the mean±the standard error of the mean for a sample size of n=4 (4 different cell passages) for intestine cell sensitivity experiments and n=3-4 (3-4 different cell passages) for ganglioside GD3 absorption experiments. […]

[3] = Distribution of ganglioside to the intestine (discussion)
Giardia cells = settings: after 2 h, cited from earlier work

CC(C)CCC[C@@H](C)[C@H]1CC[C@H]2[C@@H]3CC=C4C[C@@H](O)CC[C@]4(C)[C@H]3CC[C@]12C [cholesterol]
Apical uptake efficiency (rat intestine): 50%

II^3 (NeuAc)2-LacCer [GD3]
LDH release from cells (CaCo-2 cells [1]; 64 μg/ml, 24 h): significant release of LDH | Concentration at which toxicity to enterocytes begins (CaCo-2 cells [1]; after 24 h exposure): greater than 32 μg/ml | Apical GD3 uptake efficiency, maximum (CaCo-2 cells [2]; 10 μg/ml apical, after 24 h): 73% | GD3 uptake, basolateral compared to apical delivery (CaCo-2 cells [2]; 10 μg/ml, 6, 24 and 48 h): faster and more efficient | Time course of GD3 uptake (CaCo-2 cells [2]; 10 μg/ml, 6, 24 and 48 h at 37° C.): rapid and linear for the first 6 h | Amount of GD3 taken up from the basolateral membrane side when concentration doubled (CaCo-2 cells [2]; 5 or 10 μg/ml, 6 h at 37° C.): twice as high | Percent of GD3 taken up that was metabolized (CaCo-2 cells [2]; after 6 h apical exposure, 10 μg/ml): 96% | Drop of the percentage GD3 metabolized (CaCo-2 cells [2]; after 24 h apical exposure): 32% | GD3 incorporated (CaCo-2 cells [2]; apical delivery of 24 μg, after 24 h): 18.5 µg | Fate of basolateral membrane GD3 uptake (CaCo-2 cells [2]; following 24 h exposure, 10 μg/ml): completely metabolized

II^3 NeuAc-GgOse4Cer [GM1]
Fraction that could have been distributed to the intestine [3]: at most 6% | Ganglioside incorporated (Giardia cells): 2.4 µg | Maximal uptake efficiency (Giardia cells; same amount of ganglioside): 10%

II^3 NeuAc-LacCer [GM3]
Fraction that could have been distributed to the intestine [3]: ≤ 47.4%

sphingomyelin
Apical uptake efficiency (rat intestine): 22-43%
